Here are results for ten sequences from paper PMC2876253, “MHC I Stabilizing Potential of Computer-Designed Octapeptides” (Journal of Biomedicine and Biotechnology, 2010).

One may read the pEC50 as the negative decadic logarithm of the EC50, by convention in mol/L.

pEC50: −log10 of the molar value. Where no end group is shown, it is not given here.

The first experiment concerns the target T1, H-2K^b (Mus musculus, UniProt P01901).
T1 construct: For accumulation of peptide-free MHC I proteins at the cell surface, the cells were cultured for 16 hours at 26°C; endogenous in cells; host or cells: RMA-S cells (TAP-deficient mouse T lymphoma)
T1 sequence (P01901 22-369): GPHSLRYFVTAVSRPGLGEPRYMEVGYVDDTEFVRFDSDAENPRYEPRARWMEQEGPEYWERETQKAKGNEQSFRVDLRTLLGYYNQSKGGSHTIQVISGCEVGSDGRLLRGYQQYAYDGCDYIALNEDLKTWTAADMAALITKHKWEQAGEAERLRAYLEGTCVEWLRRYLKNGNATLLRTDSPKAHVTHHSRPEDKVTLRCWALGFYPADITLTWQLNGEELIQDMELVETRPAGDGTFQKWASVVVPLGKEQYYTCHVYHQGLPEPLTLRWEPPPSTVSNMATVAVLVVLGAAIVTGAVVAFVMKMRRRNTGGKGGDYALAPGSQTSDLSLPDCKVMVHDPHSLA
T1 sequence (P01887 21-119 partner): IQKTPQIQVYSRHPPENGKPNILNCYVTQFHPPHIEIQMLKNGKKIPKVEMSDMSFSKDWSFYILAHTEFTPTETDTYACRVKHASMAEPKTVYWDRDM
Nature of the experiment: MHC I stabilization assay with TAP-deficient RMA-S cells. To be noted: peptide concentration for 50% of maximal MHC I stabilization (half-maximal MFI), 100 to 5.6 × 10^−4 μg/mL, 1 h room temperature then 1 h 37°C, flow cytometry with antibody B8.24.3, standard deviation in brackets, N = 3, n.d.: not detectable, SD, read-out: Experimental EC50. The class given is cell-based. As for the experimental part: The stabilization assay was performed as described by Brock et al. using TAP-deficient RMA-S cells (mutagenized Rauscher virus-induced T lymphoma cells of mouse origin). The cells were cultured in DMEM (Gibco-BRL, Karlsruhe, Germany) with 10% FCS (Sigma-Aldrich, Steinheim, Germany) at 37°C with 8% CO2. For accumulation of peptide-free MHC I proteins at the cell surface, the cells were cultured for 16 hours at 26°C. […] The stabilized MHC I proteins were visualized and quantified by flow cytometry using the H-2K^b specific monoclonal antibody B8.24.3 [23] purified in the laboratory from hybridoma culture supernatant by protein G affinity chromatography (Pierce, Darmstadt, Germany) and an R-Phycoerythrin-conjugated anti-mouse antibody (Dianova GmbH, Hamburg, Germany) as secondary reagent. The stabilizing effect of the peptides was determined as mean fluorescence intensity (MFI). The EC50 value is the peptide concentration that is required for half-maximal stabilization of the MHC I molecules at the cell surfaces (half-maximal MFI). All peptides were custom-synthesized by EMC microcollections GmbH (Tübingen, Germany).
For WDFKFDSV [Peptide 7], the pEC50 was 5.05. The same measure, in the same setting: the value for WRFKYDNL [Peptide 4] was 5.15; that for WRFVYWRL [Peptide 5] was 5.10. With FRYPYKTL [Peptide 1], the pEC50 was 4.62. Same read-out and setting: the value for FHWDYRGL [Peptide 3] was 4.60; that for WKFIFDPV [Peptide 8] was 6.40; that for WRFIYFNL [Peptide 6] was 5.44.

The same experiment, now with this note: peptide concentration for 50% of maximal MHC I stabilization (half-maximal MFI), 100 to 5.6 × 10^−4 μg/mL, 1 h room temperature then 1 h 37°C, flow cytometry with antibody B8.24.3, standard deviation in brackets, N = 3, n.d.: not detectable, read-out: Experimental EC50.
On to FRYIYHTL [Seq. 2], for which the pEC50 was 4.70. Same read-out and setting: the same measure for FHHAHRTV [sequence 9]: 5.05.

The next experiment concerns the target T1, H-2K^b.
Test: not given
On the set-up: method as in PMID 1606619. To be noted: known nonstabilizing octapeptide; cited from earlier work.
Consider LSPFPFDL, for which the “H-2K^b stabilizing effect in words” value is “nonstabilizing”.
